Experimental data published in paper PMC11855207, “Synthesis and Evaluation of Aromatic A-Ring 23-Oxavitamin D3 Analogues as Hedgehog Pathway Inhibitors” (International Journal of Molecular Sciences, 2025).

System: Hh signaling pathway (Gli1 mRNA) in C3H10T1/2 cells
Assay: Gli1 mRNA down-regulation (qPCR) in OHC-stimulated C3H10T1/2 cells
Type: cell-based, mouse
Settings: 5 μM with OHCs 5 μM, 24 h, relative Gli1 mRNA levels compared to OHCs (set to 100%)
Description: (§1) The VD3 analogues were initially assessed for their ability to inhibit the Hh signaling pathway by evaluating the effects on endogenous Gli1 mRNA levels at a single concentration (5 μM) co-administration of oxysterols (OHCs; 20(S)-hydroxycholesterol, 22(S)-hydroxycholesterol at 5 μM each) in C3H10T1/2 cells, an Hh-dependent mouse embryonic fibroblast (MEF) cell line. […] VD3 derivatives may retain some VDR agonistic activity, thereby compromising the selectivity of these compounds as Hh inhibitors. The selectivity profile of the analogues for Hh inhibition, compared to typical VDR activation, was assessed by measuring the ability to up-regulate Cyp24a1 mRNA levels in the same cellular system and by evaluating their binding to VDR using a fluorescence polarization-based competition assay (Table 1).
(§2) Mouse embryonic fibroblast cell line (C3H10T1/2, wild-type, VDR^−/−, SuFu^−/−), mouse keratinocyte cell line (ASZ001), and human embryonic kidney cell line (HEK293T) were purchased from China Center for Type Culture Collection (CCTCC; Wuhan, Hubei, China) and cultured under standard protocols. […] Therefore, they can be used to assess the inhibitory strength of the Hh signaling and the selectivity of the VDR signaling. VDR^−/− and SuFu^−/− C3H10T1/2 cells were used to study compounds selectivity for Hh and VDR signaling. If compounds regulate Hh signaling independently of VDR, their ability to down-regulate Gli1 mRNA expression should be abolished in SuFu^−/− C3H10T1/2 cells. […] The loss of Ptch in ASZ001 cells […], so down-regulating Gli1 reflects direct Smo inhibition by the compound. Comparing results from ASZ001 and C3H10T1/2 cells highlights the compound’s inhibition of the Hh signaling pathway.
(§3) RNA isolation in C3H10T1/2 cells was performed in 24-well plates (50,000 cells plated; TRIZOL Reagent); in ASZ001, cells were done in 35 mm dishes (300,000 cells plated; TRIZOL Reagent). cDNA synthesis was performed utilizing the SweScript All-in-One RT SuperMix Kit (Servicebio, Wuhan, China) per the manufacturer’s instructions on a BioRad S1000 Thermal Cycler (Hercules, CA, USA). qPCR (Hh signaling pathway and VDR) analysis of target genes was performed on Step OnePlus (ABI) using the Taqman Gene Expression Assays: mouse ActB (Mm00607939_s1), mouse GLI1 (Mm00494645_ml), mouse PTCH1(Mm00436026_m1), and mouse CYP24A1 (Mm00487244_ml). Relative gene expression levels were computed via the ΔΔCt method. ActinB mRNA expression levels of all samples were normalized to DMSO control ActinB mRNA levels (vehicle; set at 1.00). […] The mRNA expression levels from drug-treated samples were compared to OHCs levels (Gli1, PTCH) and DMSO control (Cyp24A1).

Compound	Gli1 mRNA (%)
C[C@H](COCC(C)(C)O)[C@H]1CC[C@H]2[C@@H](O)CCC[C@]12C [Compound 2b]	comparable to that of VD3
CC(C)COC[C@@H](C)[C@H]1CC[C@H]2[C@@H](O)CCC[C@]12C [Compound 2a]	comparable to that of VD3

Same assay, conditions: Mus musculus, C3H 10T1/2, 5 μM with OHCs 5 μM, 24 h, relative Gli1 mRNA levels compared to OHCs (set to 100%)

Compound	mrna remaining at 5 µM
C[C@H](COCC(C)(C)O)[C@H]1CC[C@H]2[C@@H](O)CCC[C@]12C [Compound 2b]	42.7 ± 3.4%
C[C@H](COCC(C)(C)O)[C@H]1CC[C@H]2[C@@H](OC(=O)c3ccc([N+](=O)[O-])cc3)CCC[C@]12C [Compound 4b]	54.6 ± 3.8%
C[C@H](COCC(C)(C)O)[C@H]1CC[C@H]2[C@@H](OC(=O)c3cc([N+](=O)[O-])cc([N+](=O)[O-])c3)CCC[C@]12C [Compound 4f]	30.7 ± 2.5%
COc1ccc(C(=O)O[C@H]2CCC[C@]3(C)[C@@H]([C@H](C)COCC(C)C)CC[C@@H]23)cc1 [Compound 3c]	89.6 ± 4.3%
CC(C)COC[C@@H](C)[C@H]1CC[C@H]2[C@@H](O)CCC[C@]12C [Compound 2a]	36.8 ± 3.6%

Molecular target: T1, recombinant VDR (Homo sapiens, UniProt P11473)
T1 construct: purchased Thermo Fisher Scientific
T1 sequence (P11473 1-427): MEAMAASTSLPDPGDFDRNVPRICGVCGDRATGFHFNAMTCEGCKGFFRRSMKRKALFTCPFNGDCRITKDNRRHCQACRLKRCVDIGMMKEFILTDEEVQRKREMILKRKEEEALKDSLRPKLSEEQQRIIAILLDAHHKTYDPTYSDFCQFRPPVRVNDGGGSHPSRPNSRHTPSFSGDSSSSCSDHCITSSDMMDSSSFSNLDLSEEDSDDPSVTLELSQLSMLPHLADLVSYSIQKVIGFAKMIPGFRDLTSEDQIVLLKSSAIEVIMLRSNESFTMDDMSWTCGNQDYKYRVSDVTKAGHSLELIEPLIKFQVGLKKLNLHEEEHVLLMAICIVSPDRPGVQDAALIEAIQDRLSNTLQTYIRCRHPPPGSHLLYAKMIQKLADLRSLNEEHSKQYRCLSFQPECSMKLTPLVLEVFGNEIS
Assay: VDR binding, fluorescence polarization-based competition assay (PolarScreen VDR Competitor Assay Red)
Settings: compounds evaluated at 100 μM
Description: as §1
VDR binding assay was performed using a PolarScreen VDR Competitor Assay Red kit (Thermo Fisher Scientific, Carlsbad, CA, USA) per the manufacturer’s instructions. Compounds were evaluated at 100 μM in 2.5% final DMSO in triplicate. Calcitriol is utilized as a positive control for VDR binding.

Compound	VDR Binding
C[C@H](COCC(C)(C)O)[C@H]1CC[C@H]2[C@@H](O)CCC[C@]12C [Compound 2b]	>100 µM
C[C@H](COCC(C)(C)O)[C@H]1CC[C@H]2[C@@H](OC(=O)c3ccc([N+](=O)[O-])cc3)CCC[C@]12C [Compound 4b]	>100 µM
C[C@H](COCC(C)(C)O)[C@H]1CC[C@H]2[C@@H](OC(=O)c3cc([N+](=O)[O-])cc([N+](=O)[O-])c3)CCC[C@]12C [Compound 4f]	>100 µM
COc1ccc(C(=O)O[C@H]2CCC[C@]3(C)[C@@H]([C@H](C)COCC(C)C)CC[C@@H]23)cc1 [Compound 3c]	>100 µM
CC(C)COC[C@@H](C)[C@H]1CC[C@H]2[C@@H](O)CCC[C@]12C [Compound 2a]	>100 µM

System: VDR signaling (Cyp24A1 mRNA) in C3H10T1/2 cells
Assay: Cyp24A1 mRNA up-regulation (qPCR) in C3H10T1/2 cells
Type: cell-based, mouse
Settings: 5 μM with OHCs 5 μM, 24 h, relative to DMSO (set to 1.0)
Description: as §1, §2, §3

Compound	Cyp24A1 mRNA (fold up-regulation)
C[C@H](COCC(C)(C)O)[C@H]1CC[C@H]2[C@@H](O)CCC[C@]12C [Compound 2b]	weak
CC(C)COC[C@@H](C)[C@H]1CC[C@H]2[C@@H](O)CCC[C@]12C [Compound 2a]	weak

Same assay, conditions: Mus musculus, C3H 10T1/2, 5 μM with OHCs 5 μM, 24 h, relative to DMSO (set to 1.0)

Compound	fold induction at 5 µM
C[C@H](COCC(C)(C)O)[C@H]1CC[C@H]2[C@@H](O)CCC[C@]12C [Compound 2b]	76.8 ± 6.3
C[C@H](COCC(C)(C)O)[C@H]1CC[C@H]2[C@@H](OC(=O)c3ccc([N+](=O)[O-])cc3)CCC[C@]12C [Compound 4b]	92.7 ± 15.9
C[C@H](COCC(C)(C)O)[C@H]1CC[C@H]2[C@@H](OC(=O)c3cc([N+](=O)[O-])cc([N+](=O)[O-])c3)CCC[C@]12C [Compound 4f]	131 ± 19.7
COc1ccc(C(=O)O[C@H]2CCC[C@]3(C)[C@@H]([C@H](C)COCC(C)C)CC[C@@H]23)cc1 [Compound 3c]	36.7 ± 2.9
CC(C)COC[C@@H](C)[C@H]1CC[C@H]2[C@@H](O)CCC[C@]12C [Compound 2a]	1.6 ± 0.3
